According to publication PMC3072031 (Analytical chemistry, 2010):

Columns and labels:
Aβ(1–40) mAb = conditions: reported value; ref [41]; cited from earlier work
detection conjugate = assay type: binding; conditions: deduced from equation (1)

Substance | KD between the Aβ(1–40) mAb and Aβ(1–40), in words (Aβ(1–40) mAb) | KD deduced from Langmuir isotherm, in words (detection conjugate)
Aβ(1–40): amyloid-β peptide, purchased from American Peptide Inc.; endogenous peptide in human CSF samples | nanomolar level | nanomolar level
Aβ(1–42): 42-residue-long amyloid-β peptide, purchased from American Peptide Inc.; endogenous peptide in human CSF samples | – | nanomolar level
